{
  "source": "patent US9359308B2",
  "about": "“Pyrazine kinase inhibitors” (Portola Pharmaceuticals, Inc., priority 2011, dated 2016)",
  "data": [
    {"biological_target": "T1, full length active recombinant SYK enzyme (Homo sapiens, UniProt P43405)", "T1 construct": "full length active recombinant SYK enzyme (Millipore, Calif.); purchased Millipore", "assay": "Inhibition of Syk tyrosine phosphorylation activity (LANCE TR-FRET kinase assay)", "type": "biochemical", "conditions": "activity in the Syk assays, class symbols", "method_in_brief": "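IC50 was derived by non-linear regression of TR-FRET signal (Eu-W1024-PY100 donor, streptavidin-APC acceptor) read 1 h after EDTA quench. The kinase step ran 1 h at room temperature with 1 nM full-length SYK, 550 nM biotinylated DEEDYESP substrate and 100 μM ATP in Tris pH 7.5/MgCl2/DTT at 3% final DMSO.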", "units": {"IC50": "nM"}, "values": [
      {"smiles": "Cc1cccc(Nc2nc(N[C@@H]3CCCC(F)(F)[C@@H]3N)cnc2C(N)=O)c1", "note": "[Example 103, 5-((1R,2R)-2-amino-3,3-difluorocyclohexylamino)-3-(m-tolylamino)pyrazine-2-carboxamide]", "IC50": "10 to 100"},
      {"smiles": "NC(=O)c1ncc(N[C@@H]2CCNC2)nc1Nc1cccc(-n2nccn2)c1", "note": "[Example 105, (R)-3-((3-(2H-1,2,3-triazol-2-yl)phenyl)amino)-5-(pyrrolidin-3-ylamino)pyrazine-2-carboxamide]", "IC50": "1 to 10"},
      {"smiles": "NC(=O)c1ncc(N[C@@H]2CCNC2)nc1Nc1csc2ncccc12", "note": "[Example 106, (R)-5-(pyrrolidin-3-ylamino)-3-(thieno[2,3-b]pyridin-3-ylamino)pyrazine-2-carboxamide]", "IC50": "1 to 10"},
      {"smiles": "NC(=O)c1ncc(N[C@@H]2CCNC2)nc1Nc1cnn2ccccc12", "note": "[Example 107, (R)-3-(pyrazolo[1,5-a]pyridin-3-ylamino)-5-(pyrrolidin-3-ylamino)pyrazine-2-carboxamide]", "IC50": "10 to 100"},
      {"smiles": "NC(=O)c1ncc(N[C@H]2CCNC2)nc1Nc1ccc2ncccc2c1", "note": "[Example 108, (S)-5-(pyrrolidin-3-ylamino)-3-(quinolin-6-ylamino)pyrazine-2-carboxamide]", "IC50": "10 to 100"},
      {"smiles": "CC(=O)N1CCC[C@H](Nc2cnc(C(N)=O)c(Nc3cnc4ccccc4c3)n2)C1", "note": "[Example 109, (S)-5-((1-acetylpiperidin-3-yl)amino)-3-(quinolin-3-ylamino)pyrazine-2-carboxamide]", "IC50": "> 1000"},
      {"smiles": "CC(=O)N1CC[C@@H](Nc2cnc(C(N)=O)c(Nc3cnc4ccccc4c3)n2)C1", "note": "[Example 110, (R)-5-((1-acetylpyrrolidin-3-yl)amino)-3-(quinolin-3-ylamino)pyrazine-2-carboxamide]", "IC50": "> 1000"},
      {"smiles": "CC(=O)N1CC[C@@H](Nc2cnc(C(N)=O)c(Nc3ccc4ncccc4c3)n2)C1", "note": "[Example 111, (R)-5-((1-acetylpyrrolidin-3-yl)amino)-3-(quinolin-6-ylamino)pyrazine-2-carboxamide]", "IC50": "> 1000"},
      {"smiles": "Cc1ccc(Nc2nc(N[C@@H]3CCNC3)cnc2C(N)=O)cc1", "note": "[Example 112, (R)-5-(pyrrolidin-3-ylamino)-3-(p-tolylamino)pyrazine-2-carboxamide]", "IC50": "10 to 100"},
      {"smiles": "NC(=O)c1ncc(N[C@@H]2CCNC2)nc1Nc1cccnc1", "note": "[Example 113, (R)-3-(pyridin-3-ylamino)-5-(pyrrolidin-3-ylamino)pyrazine-2-carboxamide]", "IC50": "10 to 100"},
      {"smiles": "NC(=O)c1ncc(N[C@@H]2CCNC2)nc1Nc1cccc(-c2ncccn2)c1", "note": "[Example 114, (R)-3-((3-(pyrimidin-2-yl)phenyl)amino)-5-(pyrrolidin-3-ylamino)pyrazine-2-carboxamide]", "IC50": "1 to 10"},
      {"smiles": "NC(=O)c1ncc(N[C@@H]2CCNC2)nc1Nc1cncc(F)c1", "note": "[Example 115, (R)-3-((5-fluoropyridin-3-yl)amino)-5-(pyrrolidin-3-ylamino)pyrazine-2-carboxamide]", "IC50": "100 to 1000"},
      {"smiles": "Cc1cccc(Nc2nc(N[C@@H]3CCNC3)cnc2C(N)=O)c1", "note": "[Example 116, (R)-5-(pyrrolidin-3-ylamino)-3-(m-tolylamino)pyrazine-2-carboxamide]", "IC50": "1 to 10"},
      {"smiles": "NC(=O)c1ncc(N[C@@H]2CCNC2)nc1Nc1cnc2ccncc2c1", "note": "[Example 117, (R)-3-((1,6-naphthyridin-3-yl)amino)-5-(pyrrolidin-3-ylamino)pyrazine-2-carboxamide]", "IC50": "10 to 100"},
      {"smiles": "N#CCN1CC[C@@H](Nc2cnc(C(N)=O)c(Nc3cnc4ccncc4c3)n2)C1", "note": "[Example 118, (R)-3-((1,6-naphthyridin-3-yl)amino)-5-((1-(cyanomethyl)pyrrolidin-3-yl)amino)pyrazine-2-carboxamide]", "IC50": "100 to 1000"},
      {"smiles": "Cc1cc(Nc2nc(N[C@H](CC(F)F)C(N)=O)cnc2C(N)=O)sn1", "note": "[Example 119, (R)-5-((1-amino-4,4-difluoro-1-oxobutan-2-yl)amino)-3-((3-methylisothiazol-5-yl)amino)pyrazine-2-carboxamide]", "IC50": "1 to 10"},
      {"smiles": "Cc1nsc(Nc2nc(N[C@@H]3CCCC[C@@H]3N)cnc2C(N)=O)c1-c1ccccc1", "note": "[Example 120, 5-(((1R,2S)-2-aminocyclohexyl)amino)-3-((3-methyl-4-phenylisothiazol-5-yl)amino)pyrazine-2-carboxamide]", "IC50": "10 to 100"},
      {"smiles": "Cc1nsc(Nc2nc(N[C@@H]3CCCC[C@@H]3N)cnc2C(N)=O)c1-c1cccnc1", "note": "[Example 121]", "IC50": "100 to 1000"},
      {"smiles": "Cc1ccc(Nc2nc(N[C@H](CC(F)F)C(N)=O)cnc2C(N)=O)cc1C", "note": "[Example 122, (R)-5-((1-amino-4,4-difluoro-1-oxobutan-2-yl)amino)-3-((3,4-dimethylphenyl)amino)pyrazine-2-carboxamide]", "IC50": "< 1"},
      {"smiles": "Cc1ccc(Nc2nc(N[C@H](CC(F)F)C(N)=O)cnc2C(N)=O)cc1", "note": "[Example 123, (R)-5-((1-amino-4,4-difluoro-1-oxobutan-2-yl)amino)-3-(p-tolylamino)pyrazine-2-carboxamide]", "IC50": "1 to 10"},
      {"smiles": "Cc1nsc(Nc2nc(N[C@@H]3CCCC[C@@H]3N)cnc2C(N)=O)c1-c1cncnc1", "note": "[Example 125, 5-(((1R,2S)-2-aminocyclohexyl)amino)-3-((3-methyl-4-(pyrimidin-5-yl)isothiazol-5-yl)amino)pyrazine-2-carboxamide]", "IC50": "> 1000"},
      {"smiles": "NC(=O)c1ncc(N[C@H](CC(F)(F)F)C(N)=O)nc1Nc1cnc2cccnc2c1", "note": "[Example 126, (R)-3-((1,5-naphthyridin-3-yl)amino)-5-((1-amino-4,4,4-trifluoro-1-oxobutan-2-yl)amino)pyrazine-2-carboxamide]", "IC50": "1 to 10"},
      {"smiles": "NC(=O)c1ncc(N[C@H](CC(F)F)C(N)=O)nc1Nc1cnc2cccnc2c1", "note": "[Example 127, (R)-3-((1,5-naphthyridin-3-yl)amino)-5-((1-amino-4,4-difluoro-1-oxobutan-2-yl)amino)pyrazine-2-carboxamide]", "IC50": "1 to 10"},
      {"smiles": "NC(=O)c1ncc(NCC2(N)CC2)nc1Nc1ccc2ncccc2c1", "note": "[Example 128, 5-(((1-aminocyclopropyl)methyl)amino)-3-(quinolin-6-ylamino)pyrazine-2-carboxamide]", "IC50": "1 to 10"},
      {"smiles": "CNC1(CNc2cnc(C(N)=O)c(Nc3ccc4ncccc4c3)n2)CC1", "note": "[Example 129, 5-(((1-(methylamino)cyclopropyl)methyl)amino)-3-(quinolin-6-ylamino)pyrazine-2-carboxamide]", "IC50": "1 to 10"},
      {"smiles": "CCc1c(C)nsc1Nc1nc(N[C@@H]2CCCC[C@@H]2N)cnc1C(N)=O", "note": "[Example 130, 5-(((1R,2S)-2-aminocyclohexyl)amino)-3-((4-ethyl-3-methylisothiazol-5-yl)amino)pyrazine-2-carboxamide]", "IC50": "1 to 10"},
      {"smiles": "Cc1nsc(Nc2nc(N[C@@H]3CCCC[C@@H]3N)cnc2C(N)=O)c1C", "note": "[Example 131, 5-(((1R,2S)-2-aminocyclohexyl)amino)-3-((3,4-dimethylisothiazol-5-yl)amino)pyrazine-2-carboxamide]", "IC50": "< 1"},
      {"smiles": "CC[C@@H](Nc1cnc(C(N)=O)c(Nc2snc(C)c2Br)n1)C(N)=O", "note": "[Example 132, (R)-5-((1-amino-1-oxobutan-2-yl)amino)-3-((4-bromo-3-methylisothiazol-5-yl)amino)pyrazine-2-carboxamide]", "IC50": "10 to 100"},
      {"smiles": "CC[C@@H](Nc1cnc(C(N)=O)c(Nc2snc(C)c2I)n1)C(N)=O", "note": "[Example 133, (R)-5-((1-amino-1-oxobutan-2-yl)amino)-3-((4-iodo-3-methylisothiazol-5-yl)amino)pyrazine-2-carboxamide]", "IC50": "10 to 100"},
      {"smiles": "CC[C@@H](Nc1nc(Nc2snc(C)c2I)c(C(N)=O)nc1I)C(N)=O", "note": "[Example 134, (R)-5-((1-amino-1-oxobutan-2-yl)amino)-6-iodo-3-((4-iodo-3-methylisothiazol-5-yl)amino)pyrazine-2-carboxamide]", "IC50": "100 to 1000"},
      {"smiles": "CC[C@@H](Nc1cnc(C(N)=O)c(Nc2snc(C)c2Cl)n1)C(N)=O", "note": "[Example 135, (R)-5-((1-amino-1-oxobutan-2-yl)amino)-3-((4-chloro-3-methylisothiazol-5-yl)amino)pyrazine-2-carboxamide]", "IC50": "10 to 100"},
      {"smiles": "Cc1cc(Nc2nc(N[C@H](CC3CC3)C(N)=O)c(Cl)nc2C(N)=O)sn1", "note": "[Example 136, (R)-5-((1-amino-3-cyclopropyl-1-oxopropan-2-yl)amino)-6-chloro-3-((3-methylisothiazol-5-yl)amino)pyrazine-2-carboxamide]", "IC50": "10 to 100"},
      {"smiles": "CC[C@@H](Nc1nc(Nc2cc(C)ns2)c(C(N)=O)nc1Cl)C(N)=O", "note": "[Example 137, (R)-5-((1-amino-1-oxobutan-2-yl)amino)-6-chloro-3-((3-methylisothiazol-5-yl)amino)pyrazine-2-carboxamide]", "IC50": "10 to 100"},
      {"smiles": "Cc1nsc(Nc2nc(N[C@@H]3CCCC[C@@H]3N)cnc2C(N)=O)c1F", "note": "[Example 138]", "IC50": "1 to 10"},
      {"smiles": "Cc1cc(Nc2nc(N[C@H]3CN[C@@H](CO)C3)cnc2C(N)=O)sn1", "note": "[Example 139, 5-(((3R,5R)-5-(hydroxymethyl)pyrrolidin-3-yl)amino)-3-((3-methylisothiazol-5-yl)amino)pyrazine-2-carboxamide]", "IC50": "10 to 100"},
      {"smiles": "NC(=O)c1ncc(N[C@H]2CN[C@@H](CO)C2)nc1Nc1cnc2ccc(F)cc2c1", "note": "[Example 140, 3-((6-fluoroquinolin-3-yl)amino)-5-(((3R,5R)-5-(hydroxymethyl)pyrrolidin-3-yl)amino)pyrazine-2-carboxamide]", "IC50": "1 to 10"},
      {"smiles": "COc1ccc(Nc2nc(N[C@@H](C(N)=O)C(C)C)cnc2C(N)=O)cc1OC", "note": "[Example 141, (R)-5-(1-amino-3-methyl-1-oxobutan-2-ylamino)-3-(3,4-dimethoxyphenylamino)pyrazine-2-carboxamide]", "IC50": "10 to 100"},
      {"smiles": "COc1ccc(Nc2nc(N[C@@H]3CCCC[C@@H]3N)cnc2C(N)=O)cc1OC", "note": "[Example 142, 5-((1R,2S)-2-aminocyclohexylamino)-3-(3,4-dimethoxyphenylamino)pyrazine-2-carboxamide]", "IC50": "1 to 10"},
      {"smiles": "Cc1cc(Nc2nc(N[C@@H]3CCCC[C@@H]3N)cnc2C(N)=O)ccc1N1CCOCC1", "note": "[Example 143, 5-((1R,2S)-2-aminocyclohexylamino)-3-(3-methyl-4-morpholinophenylamino)pyrazine-2-carboxamide]", "IC50": "1 to 10"}
    ]}
  ]
}
